The nature of assay [1]: Cytotoxicity against human SKOV3 cells assessed as reduction in cell viability by MTT assay. The class given is functional, cell-based, SK-OV-3. Background: Tetrazolium assays rely on reduction of a dye to a coloured formazan, in cell work by metabolically active cells.
The test system of assay [2] is A549. Description: Cytotoxicity against human A549 cells assessed as reduction in cell viability by MTT assay. The class given is functional, cell-based.
In assay [3] the test system is MCF7. Description: Cytotoxicity against human MCF7 cells assessed as reduction in cell viability by MTT assay. The class given is functional, cell-based.
Assay [4] can be described thus: Cytotoxicity against human DU145 cells assessed as reduction in cell viability by MTT assay. The class given is functional, cell-based, DU-145.
The subject of assay [5] is HUVEC. Put plainly: Cytotoxicity against HUVEC assessed as reduction in cell viability by MTT assay. It is filed as cell-based, Homo sapiens.
The test system of assay [6] is MCF7. Description: Induction of apoptosis in human MCF7 cells assessed as caspase-3 activation using AFC-conjugated Ac-DEVD as substrate at 5 to 10 uM incubated for 24 to 48 hrs by fluorescence assay relative to untreated control. The class given is functional.
In assay [7] the test system is MCF7. Description: Induction of apoptosis in human MCF7 cells assessed as caspase-9 activation using AFC-conjugated Ac-LEHD as substrate at 5 to 10 uM incubated for 24 to 48 hrs by fluorescence assay relative to untreated control. It is filed as functional.
The test system of assay [8] is MCF7. Put plainly: Antiproliferative activity against human MCF7 cells assessed as decrease in cell proliferation at 5 to 10 uM after 24 hrs by bromodeoxyuridine cell proliferation assay relative to untreated control. The class given is functional, cell-based.
Setting [9] is: Homo sapiens, SK-OV-3, read-out: IC50.
The mark [10] stands for this setting: Homo sapiens, A549, read-out: IC50.
The mark [11] stands for this setting: Homo sapiens, MCF7, read-out: IC50.
The mark [12] stands for this setting: Homo sapiens, DU-145, read-out: IC50.
[13] abbreviates: Homo sapiens, HUVEC, read-out: IC50.

The values below come from ChEMBL document CHEMBL3758176, “Synthesis of dihydrosterculic acid-based monoglucosyl diacylglycerol and its analogues and their biological evaluation” (Eur J Med Chem, 2016).

Active and inactive are the calls of the source. No cut-off for these calls is given here.

Take `CCCCCCCCC1CC1CCCCCCCC(=O)OC[C@H](CO[C@@H]1O[C@H](COC(C)=O)[C@@H](OC(C)=O)[C@H](OC(C)=O)[C@H]1OC(C)=O)OC(=O)CCCCCCCC1CC1CCCCCCCC` (stereo partly specified): the IC50 entry in assay [1] (sk-ov-3), in assay [2] (a549), in assay [3] (mcf7), in assay [4] (du-145) and in assay [5] (huvec) was “Not Active” each time.
With `C=CCCCCCCCCC(=O)OC[C@H](CO[C@@H]1O[C@H](COC(C)=O)[C@@H](OC(C)=O)[C@H](OC(C)=O)[C@H]1OC(C)=O)OC(=O)CCCCCCCCC=C`, the IC50 (commonly the point on the concentration scale where inhibition reaches its midpoint) in assay [1] (setting [9]) worked out at 29.4 µM; in assay [2] (setting [10]) it was 30.2 µM; in assay [3] (setting [11]), 25.6 µM; in assay [4] (setting [12]) it was 33 µM; in assay [5] (setting [13]), 119 µM.
Consider `CCCCCCCCCCCC(=O)OC[C@H](CO[C@@H]1O[C@H](CO)[C@@H](O)[C@H](O)[C@H]1O)OC(=O)CCCCCCCCCCC`, for which the IC50 in assay [1] (setting [9]) stood at 44.4 µM; in assay [2] (setting [10]) it was 35.6 µM; in assay [3] (setting [11]), 32.6 µM; in assay [4] (setting [12]) it was 54.9 µM; in assay [5] (setting [13]) it was 96.1 µM.
Turning to `CCCCCCCCC1CC1CCCCCCCC(=O)OC[C@H](CO[C@@H]1O[C@H](CO)[C@@H](O)[C@H](O)[C@H]1O)OC(=O)CCCCCCCC1CC1CCCCCCCC` (stereo partly specified), the IC50 in assay [1] (setting [9]) amounted to 112 µM; in assay [2] (setting [10]), 124 µM; in assay [3] (setting [11]) it was 99.8 µM; in assay [4] (setting [12]) it was 210 µM; in assay [5] (setting [13]), 120 µM.
As to `CCCCCCCC/C=C\CCCCCCCC(=O)OC[C@H](CO[C@@H]1O[C@H](COC(C)=O)[C@@H](OC(C)=O)[C@H](OC(C)=O)[C@H]1OC(C)=O)OC(=O)CCCCCCC/C=C\CCCCCCCC`, the IC50 entry in assay [1] (sk-ov-3), in assay [2] (a549), in assay [3] (mcf7), in assay [4] (du-145) and in assay [5] (huvec) was “Not Active” each time.
As for `CCCCCCCC/C=C\CCCCCCCC(=O)OC[C@H](CO[C@@H]1O[C@H](CO)[C@@H](O)[C@H](O)[C@H]1O)OC(=O)CCCCCCC/C=C\CCCCCCCC`, the IC50 worked out at 19.1 µM in assay [1] (setting [9]); 18.2 µM in assay [2] (setting [10]); 17.6 µM in assay [3] (setting [11]); 20.1 µM in assay [4] (setting [12]); 110 µM in assay [5] (setting [13]). The “fold change (FC)” value in assay [6] and in assay [7] was 2 in each case. The outcome in assay [8] was Active.
For the molecule `CCCCCCCCCCCC(=O)OC[C@H](CO[C@@H]1O[C@H](COC(C)=O)[C@@H](OC(C)=O)[C@H](OC(C)=O)[C@H]1OC(C)=O)OC(=O)CCCCCCCCCCC`, the IC50 result in assay [1] (sk-ov-3), in assay [2] (a549), in assay [3] (mcf7), in assay [4] (du-145) and in assay [5] (huvec) was “Not Active” throughout.
On to `CCCCCCCC/C=C\CCCCCCCC(=O)O[C@H](COC(=O)CCCCCCCC1CC1CCCCCCCC)CO[C@@H]1O[C@H](CO)[C@@H](O)[C@H](O)[C@H]1O` (stereo partly specified), for which the IC50 in assay [1] (setting [9]) is 35.6 µM; in assay [2] (setting [10]), 41.6 µM; in assay [3] (setting [11]), 38.2 µM; in assay [4] (setting [12]), 38.9 µM; in assay [5] (setting [13]), 99.8 µM.
Regarding `CCCCCCCC/C=C\CCCCCCCC(=O)O[C@H](COC(=O)CCCCCCCC1CC1CCCCCCCC)CO[C@@H]1O[C@H](COC(C)=O)[C@@H](OC(C)=O)[C@H](OC(C)=O)[C@H]1OC(C)=O` (stereo partly specified), the IC50 result in assay [1] (sk-ov-3) was “Not Active”; in assay [2] (a549), “Not Active”; in assay [3] (setting [11]), 94.2 µM; in assay [4] (setting [12]), 186 µM; in assay [5] (setting [13]) it was 122 µM.
`COc1cccc2c1C(=O)c1c(O)c3c(c(O)c1C2=O)C[C@@](O)(C(=O)CO)C[C@@H]3O[C@H]1C[C@H](N)[C@H](O)[C@H](C)O1` [DOXORUBICIN]: the figures for the IC50 in assay [1] (setting [9]), in assay [4] (setting [12]) and in assay [5] (setting [13]) were 0.7 µM, 0.7 µM and 79.6 µM, respectively.
With `C=CCCCCCCCCC(=O)OC[C@H](CO[C@@H]1O[C@H](CO)[C@@H](O)[C@H](O)[C@H]1O)OC(=O)CCCCCCCCC=C`, the IC50 in assay [1] (setting [9]) stood at 89.6 µM; in assay [2] (setting [10]) it was 106 µM; in assay [3] (setting [11]), 32.5 µM; in assay [4] (setting [12]) it was 119 µM; in assay [5] (setting [13]) it was 126 µM.
